Experimental data as given in patent US9981897B2, “Ethers of bis(hydroxymethyl)cyclohexanes” (BASF SE, priority 2011, dated 2018).

Tests used:
[1] = toxicological assessment
[2] = stability of the ether groups; type: physicochemical
[3] = dissolution / solvent properties for ingredients of fragrance-comprising preparations; type: physicochemical; details: for customary ingredients in fragrance-comprising preparations
Description: The term “exceptional dissolution properties” refers to the solubility and also the solubilization in the perfumery application, i.e. both in the perfume oil itself, and also in the application matrix, such as soaps, creams, deodorants and others.
“Exceptional” dissolution properties are present for example if virtually all customary substances which can be used in such formulations are soluble in the solvent. “Good” dissolution properties are present if virtually all important substances which are used in such formulations are soluble in this solvent. “Moderate” dissolution properties are present if only a small fraction of the important substances is soluble or dispersible. Such substances, their importance and also the testing of the solubility in solvents are known to the person skilled in the art.

CCOCC1CCC(COCC)CC1 (stereo not drawn) [Compound I, cyclohexanedimethanol diethyl ether]
toxicological properties [1]: toxicologically acceptable
stability of the ether groups [2]: very high

CCOC[C@H]1CC[C@H](COCC)CC1 [Compound I-trans, Trans-1,4-Cyclohexanedimethanol Diethyl Ether]
dissolution properties [3]: exceptional
